Data: ChEMBL document CHEMBL1150871, “New Briarane Stecholide Diterpenes from the Indonesian Gorgonian Briareum sp” (J Nat Prod, 1998)
≈ marks a conversion by molar mass, not a printed value.

Columns and labels:
Type in all cases: functional, cell-based
HT-29 = experiment: Cytotoxicity against human HT-29 cells
SK-MEL-28 = experiment: Cytotoxicity against human SK-MEL-28 cells
A549 = experiment: Cytotoxicity against human A549 cells
P388 = experiment: Cytotoxicity against mouse P388 cells

Row | SMILES | IC50 (HT-29) [µg/mL] | IC50 (SK-MEL-28) [µg/mL] | IC50 (A549) [µg/mL] | IC50 (P388) [µg/mL] | EC50 (P388) [µg/mL]
1 | CC(=O)O[C@H]1C=C[C@@](C)(O)[C@@H]2[C@H](OC(C)=O)[C@@]34O[C@@]3(C)C(=O)O[C@H]4/C=C(/C)CC[C@H](OC(C)=O)[C@@]12C | > 10 | > 10 | > 10 | > 10 | 
2 | CC(=O)O[C@@H]1[C@H]2C(C)=C[C@@H](O)[C@H](OC(C)=O)[C@]2(C)[C@@H](OC(C)=O)[C@H](OC(C)=O)C/C(C)=C\[C@@H]2OC(=O)[C@]3(C)O[C@@]213 [STECHOLIDE J] | > 10 | > 10 | > 10 | > 10 | 
3 | CCCC(=O)O[C@@H]1C/C(C)=C\[C@@H]2OC(=O)[C@]3(C)O[C@]23[C@H](OC(C)=O)[C@H]2C(C)=C[C@@H](O)[C@H](OC(C)=O)[C@]2(C)[C@H]1OC(C)=O [STECHOLIDE I] | > 10 | > 10 | > 10 | > 10 | 
4 | CC(=O)O[C@@H]1[C@H]2[C@@]3(C)O[C@H]3[C@@H](O)[C@H](OC(C)=O)[C@]2(C)[C@@H](OC(C)=O)[C@H](OC(C)=O)C/C(C)=C\[C@@H]2OC(=O)[C@]3(C)O[C@@]213 [STECHOLIDE L] | 5 (≈ 8.61 µM) | 5 (≈ 8.61 µM) | 2.5 (≈ 4.31 µM) | 10 (≈ 17.2 µM) | 
5 | CC(=O)O[C@@H]1[C@@H]2O[C@]2(C)[C@@H]2[C@@H](OC(C)=O)[C@]34O[C@@]3(C)C(=O)O[C@H]4/C=C(/C)C[C@@H](OC(C)=O)[C@H](OC(C)=O)[C@@]2(C)[C@H]1OC(C)=O [STECHOLIDE K] | > 10 | > 10 | > 10 | > 10 | 
6 | CC(=O)O[C@H]1CC/C(C)=C\[C@@H]2OC(=O)[C@]3(C)O[C@@]23[C@@H](OC(C)=O)[C@H]2[C@@]3(C)O[C@H]3C[C@H](OC(C)=O)[C@]12C | > 10 | > 10 | > 10 |  | 1.59 (≈ 3.14 µM)
7 | CC(=O)O[C@H]1C/C(C)=C\[C@@H]2OC(=O)[C@]3(C)O[C@]23[C@@H](OC(C)=O)[C@H]2C(C)=CC[C@H](OC(C)=O)[C@]2(C)[C@H]1OC(C)=O | > 10 | > 10 | > 10 | > 10 | 
8 | CC(=O)O[C@H]1C[C@@H]2O[C@]2(C)[C@@H]2[C@H](OC(C)=O)[C@@]34O[C@@]3(C)C(=O)O[C@H]4/C=C(/C)[C@H](OC(C)=O)C[C@H](OC(C)=O)[C@]12C [STECHOLIDE C ACETATE] | > 10 | > 10 | > 10 | > 10 | 
9 | CCCC(=O)O[C@H]1C[C@@H](OC(C)=O)/C(C)=C\[C@@H]2OC(=O)[C@]3(C)O[C@@]23[C@@H](OC(C)=O)[C@H]2[C@@]3(C)O[C@H]3C[C@H](OC(C)=O)[C@]12C [STECHOLIDE A ACETATE] | > 10 | > 10 | > 10 | > 10 | 
